Molecules are shown by their SMILES. Some results are limits rather than exact numbers.

This experiment addresses T1, Gag-Pol polyprotein [588-1027]/[588-1147] (Human immunodeficiency virus 1, UniProt P04585).
T1 construct: 588-1027; 588-1147
Description: HIV-1 RT Assay. An excerpt:
The IC50 of reverse transcriptase is the concentration that inhibits 50% of recombinant HIV-1 RT RNA-directed DNA polymerase activity in vitro.

As for `N#Cc1c(N)cccc1[S+]([O-])c1ccccc1Br` (stereo not given) [2-amino-6-[(2-bromobenzene)sulfinyl]benzonitrile], the concentration for half-maximal inhibition (IC50) (in general, the concentration that gives 50% inhibition) is over 19 µM.
Consider `N#Cc1c(N)cccc1Sc1ccccc1Br` [2-amino-6-[(2-bromophenyl)sulfanyl]benzonitrile], for which, under “pH 8”, the IC50 was over 21 µM.
For the compound `Cc1ccccc1[S+]([O-])c1cccc(N)c1C#N` (stereo not given) [2-amino-6-[(2-methylbenzene)sulfinyl]benzonitrile], the IC50 is over 21 µM.
`N#Cc1c(N)cccc1Sc1cccc(N)c1` [2-amino-6-[(3-aminophenyl)sulfanyl]benzonitrile] had an IC50 (pH 8) of over 23 µM.
`N#Cc1cccc([S+]([O-])c2cccc(N)c2C#N)c1` (stereo not given) [2-amino-6-[(3-cyanobenzene)sulfinyl]benzonitrile] gave an IC50 of over 15 µM.
In turn, `N#Cc1c(N)cccc1[S+]([O-])c1ccc(Br)cc1` (stereo not given) [2-amino-6-[(4-bromobenzene)sulfinyl]benzonitrile] had an IC50 of over 21 µM.
As for `N#Cc1c(N)cccc1S(=O)(=O)c1ccc(Br)cc1` [2-amino-6-[(4-bromobenzene)sulfonyl]benzonitrile], the half-inhibitory concentration (IC50) was over 14 µM.
On the same count and under the same terms, with `N#Cc1ccc([S+]([O-])c2cccc(N)c2C#N)cc1` (stereo not given) [2-amino-6-[(4-cyanobenzene)sulfinyl]benzonitrile] the figure was over 23 µM; with `N#Cc1ccc(S(=O)(=O)c2cccc(N)c2C#N)cc1` [2-amino-6-[(4-cyanobenzene)sulfonyl]benzonitrile], over 18 µM.
With `N#Cc1ccc(Sc2cccc(N)c2C#N)cc1` [2-amino-6-[(4-cyanophenyl)sulfanyl]benzonitrile], the IC50 (pH 8) is over 19 µM.
Regarding `COc1ccc([S+]([O-])c2cccc(N)c2C#N)cc1` (stereo not given) [2-amino-6-[(4-methoxybenzene)sulfinyl]benzonitrile], the IC50 was over 20 µM.
For the setting “pH 8”, `COc1ccc(Sc2cccc(N)c2C#N)cc1` [2-amino-6-[(4-methoxyphenyl)sulfanyl]benzonitrile] gave an IC50 of over 17 µM.
For the compound `Cc1ccc([S+]([O-])c2cccc(N)c2C#N)cc1` (stereo not given) [2-amino-6-[(4-methylbenzene)sulfinyl]benzonitrile], the IC50 was over 21 µM.
For the compound `N#Cc1c(N)cccc1[S+]([O-])c1cccc(C(F)(F)F)c1` (stereo not given) [2-amino-6-{[3-(trifluoromethyl)benzene]sulfinyl}benzonitrile], the IC50 is over 22 µM.
Regarding `O=[N+]([O-])c1ccccc1Sc1ccccc1[N+](=O)[O-]` [Bisnitrophenylsulfide], where the note is “pH 8”, the IC50 is over 20 µM.

For the origin of these results see BindingDB's records for doi:10.1021/jm0004906 (Glaxosmithkline, 2001).
